# Results as given in patent US9139596B2, “Cyclic prodrugs of duocarmycin analogs” (The Scripps Research Institute, priority 2012, dated 2015).
# Like-named read-outs stand apart in the source and are kept apart here.
# Key:
# [1] = Stability in human plasma
# Description: Reagents and solvents were purchased reagent-grade and used without further purification. Pooled human plasma, with sodium citrate as an anticoagulant, was purchased from Innovative Research and stored at −20° C. […] All reactions were performed in oven-dried glassware under an Ar atmosphere. Evaporation and concentration in vacuo was performed at 20° C. […] Chiral phase HPLC was performed using a Shimadzu HPLC on a semi-preparative Diacel ChiralCel OD column (0.46 cm×25 cm) with a flow rate of 7 mL/min and with UV detection at λ=254 nm. Optical rotations were determined on a Rudolf Research Analytical Autopol III Automatic Polarimeter (λ=589 nm, 25° C.).
# [2] = tested on: L1210 murine leukemia cell line; test: In vitro cytotoxic activity (cell growth inhibition), L1210; type: cell-based; settings: for IC50: Mus musculus
# Description: In Vitro Cytotoxic Activity. Both (+)- and ent-(−)-6 and their N-Boc precursors 16 were tested for cell growth inhibition in a cytotoxic assay with the L1210 murine leukemia cell line.
# [3] = tested on: w794 DNA; test: DNA alkylation in cell-free systems; type: biochemical
# Excerpt: Lane 1, control DNA; lanes 2-5, Sanger G, C, A, and T sequencing reactions; lanes 6-8, (+)-1 (1×10^−4 to 1×10^−6); lanes 9-10, (−)−1 (1×10^−3 to 1×10^−4); lanes 11-12, (+)-6 (1×10^−1 to 1×10^−2).
# [4] = tested on: L1210 murine leukemia cells implanted ip; test: In vivo antitumor activity (L1210, ip); settings: for Surviving Mice: live animals after 250 days
# Description: Therefore, the in vivo antitumor activity of (+)-6 was assessed alongside seco-CBI-indole2 (4) in an antitumor model consisting of L1210 murine leukemia cells implanted ip into […] which has been used historically as an initial antitumor model for comparisons in this class.^11,12,14,15 A dose range of 300 to 9000 μg/kg for prodrug (+)-6 (scaled to its in vitro cytotoxic activity IC50) and 60 to 500 μg/kg for seco-CBI-indole2 (4) and a dosing schedule (administered three times ip on days 1, 5, and 9) for both compounds was employed.
# B6D2F1 mice were injected intraperitoneal (i.p.) with syngeneic L1210 cells (1×10^6) on day 0. Ten mice were randomly assigned to control vehicle or treatment groups for compounds (+)-4 and (+)-6 at doses of 60, 100, 250, and 500 μg/kg/inj for (+)-4 or 300, 1000, 3000, and 9000 μg/kg/inj for (+)-6. Compounds (+)-4 and (+)-6 were formulated in 100% DMSO, and injected i.p. on study days 1, 5, and 9. Following injection of tumor cells, animals were monitored daily and weighed two times per week. Percent survival (T/C) for treated and control groups were determined by dividing the total survival days for each treatment group by the total survival days for the control group and multiplying ×100. All animal studies were carried out in the animal facilities of The University of Kansas Medical Center with strict adherence to the guidelines of the IACUC Animal Welfare Committee of KUMC (IACUC approval #2009-1837).
# [5] = Stability in pH 7.0 phosphate buffer; settings: for half-life: buffer
# [6] = Stability in mouse plasma (Table 4)
# [7] = 300 μg/kg i.p. on days 1, 5, and 9
# [8] = 1000 μg/kg i.p. on days 1, 5, and 9
# [9] = 3000 μg/kg i.p. on days 1, 5, and 9
# [10] = 9000 μg/kg i.p. on days 1, 5, and 9
compound,measurement,setting,value
"O=C1Nc2cccc3c4c(cc(c23)O1)N(C(=O)c1cc2cc(NC(=O)c3cc5ccccc5[nH]3)ccc2[nH]1)C[C@H]4CCl [Compound 6, N-(2-(10-(Chloromethyl)-5-oxo-5,8,9,10-tetrahydro-4H-pyrrolo[3′,2′:5,6]naphtho[1,8-de][1,3]oxazine-8-carbonyl)-1H-indol-5-yl)-1H-indole-2-carboxamide]",free drug release,"[1]; human plasma, 48 h",5%
same,half-life,"[1]; human, plasma",> 48 h
same,fold less potent than the parent drug 20,[2]; L1210,30-70 fold
same,fold more potent than its unnatural enantiomer,[2]; L1210,6 fold
same,potency of natural (S)- versus unnatural (R)-enantiomer,[2]; L1210,about one order of magnitude more potent
same,times more potent than its N-Boc precursor 16,[2]; L1210,100 to 1000 times
same,fold less potent than the free drug seco-CBI-indole2 4,"[2]; L1210, natural enantiomer",approximately 200 fold
same,IC50,"[2]; L1210, natural (S)-enantiomer, Table 4, read-out: In vitro IC50 L1210 natural",6.6 nM
same,IC50,"[2]; L1210, natural enantiomer, Table 2, read-out: IC50 L1210 natural",6.6 nM
same,IC50,"[2]; L1210, unnatural (R)-enantiomer, Table 4, read-out: In vitro IC50 L1210 unnatural",40 nM
same,IC50,"[2]; L1210, unnatural enantiomer, Table 2, read-out: IC50 L1210 unnatural",40 nM
same,IC50,"[2]; L1210, stated range, read-out: in vitro cellular potency (IC50)",1 to 10 nM
same,DNA alkylation,[3],incapable of alkylating DNA
same,MSP (Mean Survival Period),[4]; [7],24.7 days
same,T/C (Treated/Control MSP x 100),[4]; [7],140
same,Surviving Mice,[4]; [7],0/10
same,MSP (Mean Survival Period),[4]; [8],>48.5 days
same,T/C (Treated/Control MSP x 100),[4]; [8],>275
same,Surviving Mice,[4]; [8],1/10
same,MSP (Mean Survival Period),[4]; [9],>55.3 days
same,T/C (Treated/Control MSP x 100),[4]; [9],>310
same,Surviving Mice,[4]; [9],1/10
same,MSP (Mean Survival Period),[4]; [10],>172.6 days
same,T/C (Treated/Control MSP x 100),[4]; [10],>980
same,T/C (Treated/Control MSP x 100),"[4]; 9000 μg/kg i.p. on days 1, 5, and 9, listed as (+)-6",> 980
same,Surviving Mice,[4]; [10],5/10
same,antitumor activity over the dose range examined,"[4]; 300 to 9000 μg/kg (30-fold range) i.p. on days 1, 5, and 9",productive antitumor activity over the entire and much larger dose range examined
same,tolerance at the injection sites,"[4]; ip administration, compared with the free drug",tolerated at the injection sites of the animals much better than the free drug
same,half-life,"[5]; pH 7, Stability t1/2, pH 7.0 phosphate buffer, Table 4",> 168 h
same,half-life,"[5]; pH 7, t1/2, pH 7.0 phosphate buffer",> 672 h
same,cleavage of the prodrug,[5]; pH 7.0 phosphate buffer,no cleavage observed
same,half-life,[6],12 h
